Source: ChEMBL document CHEMBL1133457 (J Med Chem, 2000)

Key:
[1] = molecular target: T1, Prostaglandin G/H synthase 2 (Homo sapiens, UniProt P35354)
T1 sequence (P35354 whole entry): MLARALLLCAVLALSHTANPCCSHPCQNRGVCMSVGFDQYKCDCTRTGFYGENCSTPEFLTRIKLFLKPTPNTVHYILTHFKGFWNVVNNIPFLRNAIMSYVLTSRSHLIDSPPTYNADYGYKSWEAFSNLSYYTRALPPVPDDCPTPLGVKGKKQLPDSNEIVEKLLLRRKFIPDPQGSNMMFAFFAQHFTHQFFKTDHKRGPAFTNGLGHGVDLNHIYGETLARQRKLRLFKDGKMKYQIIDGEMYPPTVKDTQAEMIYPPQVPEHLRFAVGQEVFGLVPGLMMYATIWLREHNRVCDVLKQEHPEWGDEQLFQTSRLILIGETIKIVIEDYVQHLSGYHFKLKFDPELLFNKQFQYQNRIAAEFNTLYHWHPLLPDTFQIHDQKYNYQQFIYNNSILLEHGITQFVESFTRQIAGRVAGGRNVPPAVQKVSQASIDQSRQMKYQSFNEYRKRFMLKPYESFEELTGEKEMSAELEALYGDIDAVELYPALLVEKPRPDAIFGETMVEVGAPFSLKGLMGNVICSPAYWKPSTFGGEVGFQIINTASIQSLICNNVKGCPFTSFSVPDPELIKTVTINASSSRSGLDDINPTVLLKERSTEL

[2] = molecular target: T2, Prostaglandin G/H synthase 1 (Ovis aries, UniProt P05979)
T2 sequence (P05979 whole entry): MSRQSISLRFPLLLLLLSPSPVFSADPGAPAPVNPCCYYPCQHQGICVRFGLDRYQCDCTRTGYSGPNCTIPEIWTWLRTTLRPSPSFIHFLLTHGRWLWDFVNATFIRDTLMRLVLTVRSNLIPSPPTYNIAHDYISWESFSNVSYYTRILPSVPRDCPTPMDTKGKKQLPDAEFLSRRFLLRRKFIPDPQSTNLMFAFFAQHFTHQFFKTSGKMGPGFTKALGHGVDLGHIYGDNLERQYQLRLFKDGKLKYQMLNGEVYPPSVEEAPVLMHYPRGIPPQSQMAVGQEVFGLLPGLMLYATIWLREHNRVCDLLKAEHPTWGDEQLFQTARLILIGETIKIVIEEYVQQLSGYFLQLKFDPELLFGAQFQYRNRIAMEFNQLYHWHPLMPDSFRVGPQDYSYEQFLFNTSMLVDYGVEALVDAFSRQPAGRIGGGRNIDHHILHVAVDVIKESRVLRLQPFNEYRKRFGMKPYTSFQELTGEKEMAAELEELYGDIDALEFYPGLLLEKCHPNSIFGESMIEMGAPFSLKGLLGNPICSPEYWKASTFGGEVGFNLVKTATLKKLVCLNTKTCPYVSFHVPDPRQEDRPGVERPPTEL

| Structure (SMILES) | IC50 [1] [µM] | IC50 [2] [µM] |
| --- | --- | --- |
| COC(=O)[C@@H](C)NC(=O)Cc1c(C)n(C(=O)c2ccc(Cl)cc2)c2ccc(OC)cc12 | 0.4 | – |
| COc1ccc2c(c1)c(CC(=O)Nc1cccnc1Cl)c(C)n2C(=O)c1ccc(Cl)cc1 | 0.05 | 45 |
| COc1ccc2c(c1)c(CC(=O)NOCc1ccc([N+](=O)[O-])cc1)c(C)n2C(=O)c1ccc(Cl)cc1 | 0.06 | 4 |
| CCN(CC)C(=O)Cc1c(C)n(C(=O)c2ccc(Cl)cc2)c2ccc(OC)cc12 | 25 | > 66 |
| COc1ccc2c(c1)c(CC(=O)Nc1ccc(C(N)=O)cc1)c(C)n2C(=O)c1ccc(Cl)cc1 | 0.14 | > 66 |
| COc1ccc2c(c1)c(CC(=O)Nc1cc(OC)c(OC)c(OC)c1)c(C)n2C(=O)c1ccc(Cl)cc1 | > 1 | > 66 |
| COc1ccc2c(c1)c(CC(=O)NOCc1ccccc1)c(C)n2C(=O)c1ccc(Cl)cc1 | 0.05 | 0.06 |
| COc1ccc2c(c1)c(CC(=O)OCCNC(=O)OC(C)(C)C)c(C)n2C(=O)c1ccc(Cl)cc1 | 0.045 | > 66 |
| COc1ccc2c(c1)c(CC(=O)NCCOC(=O)/C=C/c1ccc(N(C)C)cc1)c(C)n2C(=O)c1ccc(Cl)cc1 | – | > 66 |
| COc1ccc2c(c1)c(CC(=O)OCCc1ccccc1)cn2C(=O)c1ccc(Cl)cc1 | > 66 | > 66 |
| COc1ccc2c(c1)c(CC(=O)OCCc1ccccc1)c(C)n2C(=O)c1ccc(Cl)cc1 | 0.04 | – |
| COc1ccc2c(c1)c(CC(=O)NNCc1ccccc1)c(C)n2C(=O)c1ccc(Cl)cc1 | 2.5 | > 66 |
| COc1ccc2c(c1)c(CC(=O)Oc1cccc3ccccc13)c(C)n2C(=O)c1ccc(Cl)cc1 | 5 | > 66 |
| COc1ccc2c(c1)c(CC(=O)NCCc1ccccc1)cn2C(=O)c1ccc(Cl)cc1 | > 66 | > 66 |
| COc1ccc2c(c1)c(CC(=O)Nc1cc(C)c(C(=O)Nc3ccccc3)cc1OC)c(C)n2C(=O)c1ccc(Cl)cc1 | 0.6 | 17 |
| COc1ccc2c(c1)c(CC(=O)Nc1ncc(C)s1)c(C)n2C(=O)c1ccc(Cl)cc1 | – | > 66 |
| COc1ccc2c(c1)c(CC(=O)N(C)C)c(C)n2C(=O)c1ccc(Cl)cc1 | – | > 66 |
| COc1ccc2c(c1)c(CC(=O)Nc1cncc(Cl)c1)c(C)n2C(=O)c1ccc(Cl)cc1 | 0.047 | > 66 |
| COc1ccc2c(c1)c(CC(=O)N1CCOCC1)c(C)n2C(=O)c1ccc(Cl)cc1 [INDOMETHACIN MORPHOLINYLAMIDE] | > 33 | > 66 |
